This note sets out measurements from patent publication US20250302972A1, “FORMULATION” (ENA Respiratory Pty Ltd, priority 2021, published 2025).

Values joined by “and” are separate entries in the source; they are usually repeats but may differ in a detail not shown here. Equal entries are not always repeated.

In data set [1] the target is T1, human TLR2 (hTLR2) (Homo sapiens, UniProt O60603).
T1 construct: host or cells: HEK293 (HEK-BLUE-hTLR2)
Description: Activation of human TLR2 IV: HEK-BLUE-hTLR2 cells. It counts as cell-based. The settings on record: FIG. 4. As to the method:
HEK-BLUE-hTLR2 cells are designed for studying the stimulation of human TLR2 (hTLR2) by monitoring the activation of NF-kB. HEK-BLUE-hTLR2 cells are obtained by co-transfection of the hTLR2 and SEAP (secreted embryonic alkaline phosphatase) reporter genes into HEK293 cells. Stimulation with a TLR2 ligand activates NF-kB which induces the production of SEAP.
HEK-BLUE-hTLR2 cells were purchased from InvivoGen (San Diego, CA, USA). Cells were grown in DMEM supplemented with 10% FCS, 100 U/ml penicillin, 100 ug/ml streptomycin and 2 mM L-glutamine, 100 μg/mL Normocin in the presence of selection antibiotic purchased from InvivoGen and passaged when 70% confluence was reached per manufacturer's recommendation. […]

Data set [2] is described as follows: Stability IV: formulation pH at each time point. In kind it is physicochemical. The method, then: Each compound was formulated in 0.9% w/w saline with addition of 0.1% w/w EDTA at about pH 5. The formulations were stored in the dark under accelerated conditions (40° C./75% RH) and reference formulations were stored at −80° C. At days 0, 9 and 28, samples were analysed by UHPLC and pH was measured.
The remaining ˜1 mL of solution in the clear glass HPLC vials was stored at 40° C./75% RH and was used to measure pH at each time point.
The formulation pH data recorded at each time point are compiled in Table 19. There was a general trend for the pH to increase with time but the effect was not pronounced.

The nature of data set [3]: Solubility in deionised water. In kind it is physicochemical. Particulars: DI water; read-out: concentration at which fully soluble in deionised (DI) water. As to the method: All spray drying feed solutions were prepared in deionised (DI) water. […] All other excipient components (mannitol, trehalose and HPMC) were also shown readily soluble in the DI water.
Data set [4] deals with SARS-CoV-2. Description: A204 efficacy against SARS-CoV-2 in the hamster model - prophylaxis. It counts as in vivo.
For data set [5], the system named is SARS-CoV-2. Description: A204 efficacy against SARS-CoV-2 in the hamster model - treatment. In kind it is in vivo. The settings on record: 10 ug/ml in 100 ul, 8 hours post infection; to 7 dpi.
The target of data set [6] is T1, human TLR2 (hTLR2). Description: Activation of human TLR2 II: HEK-BLUE-hTLR2 SEAP reporter assay. In kind it is cell-based. On the technique in general: Reporter assays use an easily measured gene product as a stand-in for the process of interest.
In the next data set the target is T2, human TLR2 (Homo sapiens, UniProt O60603).
T2 construct: expressed in transfected cells; host or cells: HEK-Blue hTLR2
T2 sequence (O60603 21-784): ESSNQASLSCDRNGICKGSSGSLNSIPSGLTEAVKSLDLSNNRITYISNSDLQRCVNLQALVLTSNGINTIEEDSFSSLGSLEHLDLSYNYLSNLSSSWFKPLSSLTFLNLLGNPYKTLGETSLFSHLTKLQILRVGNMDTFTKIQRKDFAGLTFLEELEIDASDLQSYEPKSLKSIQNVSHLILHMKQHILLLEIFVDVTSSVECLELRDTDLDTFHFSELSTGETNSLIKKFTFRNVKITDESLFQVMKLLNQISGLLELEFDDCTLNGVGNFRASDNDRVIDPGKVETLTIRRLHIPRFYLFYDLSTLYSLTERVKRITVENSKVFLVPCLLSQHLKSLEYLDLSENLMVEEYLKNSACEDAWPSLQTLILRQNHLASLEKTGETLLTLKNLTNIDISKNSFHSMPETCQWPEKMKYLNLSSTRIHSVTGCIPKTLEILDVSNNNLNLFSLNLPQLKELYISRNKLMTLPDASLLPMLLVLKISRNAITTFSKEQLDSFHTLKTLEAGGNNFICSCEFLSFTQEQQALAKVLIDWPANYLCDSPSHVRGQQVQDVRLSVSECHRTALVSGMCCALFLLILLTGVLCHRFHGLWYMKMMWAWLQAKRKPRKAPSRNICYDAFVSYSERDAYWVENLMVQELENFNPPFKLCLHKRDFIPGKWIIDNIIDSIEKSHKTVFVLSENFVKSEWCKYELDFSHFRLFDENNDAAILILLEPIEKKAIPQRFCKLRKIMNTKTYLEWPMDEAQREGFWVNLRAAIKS
T2 sequence (Q9Y2C9 32-796 partner): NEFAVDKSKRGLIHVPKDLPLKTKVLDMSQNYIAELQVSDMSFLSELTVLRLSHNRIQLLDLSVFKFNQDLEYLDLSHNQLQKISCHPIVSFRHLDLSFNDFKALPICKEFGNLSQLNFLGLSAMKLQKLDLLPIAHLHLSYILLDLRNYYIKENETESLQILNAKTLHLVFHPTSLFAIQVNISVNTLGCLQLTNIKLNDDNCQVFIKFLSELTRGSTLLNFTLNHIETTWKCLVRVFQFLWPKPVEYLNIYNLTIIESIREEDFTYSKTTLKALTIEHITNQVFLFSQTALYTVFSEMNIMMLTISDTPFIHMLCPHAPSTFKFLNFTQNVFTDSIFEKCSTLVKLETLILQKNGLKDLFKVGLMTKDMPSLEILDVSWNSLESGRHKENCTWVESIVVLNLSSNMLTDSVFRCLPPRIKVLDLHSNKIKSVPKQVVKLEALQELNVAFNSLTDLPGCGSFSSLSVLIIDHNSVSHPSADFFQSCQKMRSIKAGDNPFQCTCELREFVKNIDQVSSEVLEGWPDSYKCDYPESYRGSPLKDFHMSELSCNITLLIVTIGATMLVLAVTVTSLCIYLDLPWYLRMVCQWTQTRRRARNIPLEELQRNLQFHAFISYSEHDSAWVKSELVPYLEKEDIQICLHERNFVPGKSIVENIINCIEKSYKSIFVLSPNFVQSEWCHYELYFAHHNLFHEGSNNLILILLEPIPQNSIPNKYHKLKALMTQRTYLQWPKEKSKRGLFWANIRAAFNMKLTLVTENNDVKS
Briefly: HEK-Blue hTLR2 Dose Response (NF-κB SEAP reporter). It counts as cell-based. Particulars: for stimulatory (agonist) activity for hTLR2: HEK-Blue hTLR2. The method, then: (§1) Toll-Like Receptor (TLR) stimulation is tested by assessing NF-κB activation in the TLR expressing cell lines. HEK-Blue h/mTLR2 cells have been stably transfected with human or mouse TLR2 and CD14. The activity of the test articles are tested on human and mouse TLR2, as potential agonists. The test articles are evaluated at seven concentrations and compared to control ligands (see list below). These steps are performed in triplicate.
[…] Starting from the 5 μg/mL working stock, a series of six 1:4 serial dilutions were made by mixing 100 μL of the previous highest dilution with 300 μL sterile PBS.
(§2) The secreted embryonic alkaline phosphatase (SEAP) reporter is under the control of a promoter inducible by the transcription factor NF-κB. This reporter gene allows the monitoring of signaling through the TLR, based on the activation of NF-κB. In a 96-well plate (200 μL total volume) containing the appropriate cells (50,000-75,000 cells/well), 20 μL of the test article or the positive control ligand (HKLC) is added to the wells. The media added to the wells is designed for the detection of NF-κB induced SEAP expression. After a 16-24-hour incubation the optical density (OD) is read at 650 nm on a Molecular Devices SpectraMax 340PC absorbance detector.

A further data set concerns the target T3, mouse TLR2 (Mus musculus, UniProt Q9QUN7).
T3 construct: expressed in transfected cells; host or cells: HEK-Blue mTLR2
Description: HEK-Blue mTLR2 Dose Response (NF-κB SEAP reporter). In kind it is cell-based. The method, then:
as §1
A 5 μg/mL working stock was then prepared for each compound from the 20 μg/mL dilution in sterile PBS. Starting from the 5 μg/mL working stock, a series of six 1:4 serial dilutions were made by mixing 100 μL of the previous highest dilution with 300 μL sterile PBS.
as §2

The test system of the next data set is HEK-Blue Null1 cells. Briefly: HEK-Blue Null1 control cell line (control for human TLR2). It counts as cell-based. Particulars: TLR2-free control cells. The method, then:
as §2

The next data set deals with HEK-Blue Null2 cells. Description: HEK-Blue Null2 control cell line (control for mouse TLR2). It counts as cell-based. The settings on record: TLR2-free control cells. As to the method: as §2

T1 sequence (O60603 21-784): as the sequence (O60603 21-784) above
T1 sequence (Q9Y2C9 32-796 partner): as the sequence (Q9Y2C9 32-796 partner) above
T3 sequence (Q9QUN7 25-784): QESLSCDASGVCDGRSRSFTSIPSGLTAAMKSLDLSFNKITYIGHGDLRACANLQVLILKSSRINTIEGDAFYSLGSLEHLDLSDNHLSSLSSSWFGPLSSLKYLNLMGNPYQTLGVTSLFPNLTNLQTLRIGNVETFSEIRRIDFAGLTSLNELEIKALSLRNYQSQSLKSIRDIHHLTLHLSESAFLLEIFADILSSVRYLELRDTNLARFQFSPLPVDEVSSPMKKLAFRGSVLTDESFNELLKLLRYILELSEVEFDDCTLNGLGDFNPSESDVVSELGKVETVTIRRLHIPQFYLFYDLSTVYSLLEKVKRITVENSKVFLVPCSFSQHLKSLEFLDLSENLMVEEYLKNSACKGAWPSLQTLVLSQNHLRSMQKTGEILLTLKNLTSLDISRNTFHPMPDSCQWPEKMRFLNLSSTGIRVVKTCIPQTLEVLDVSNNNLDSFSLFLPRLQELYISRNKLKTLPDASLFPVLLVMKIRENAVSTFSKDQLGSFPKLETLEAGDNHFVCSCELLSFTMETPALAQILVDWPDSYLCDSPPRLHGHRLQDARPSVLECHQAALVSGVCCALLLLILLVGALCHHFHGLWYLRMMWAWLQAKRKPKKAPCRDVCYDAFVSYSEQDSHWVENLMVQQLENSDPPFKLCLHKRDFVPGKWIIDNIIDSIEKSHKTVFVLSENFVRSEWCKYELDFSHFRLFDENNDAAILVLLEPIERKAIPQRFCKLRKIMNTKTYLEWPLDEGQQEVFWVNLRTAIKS
T3 sequence (Q9Y2C9 32-796 partner): as the sequence (Q9Y2C9 32-796 partner) above

As to `CCCCCCCCCCCCCCCC(=O)OCC[C@H](CSC[C@H](N)C(=O)N[C@@H](CO)C(=O)NCCOCCOCCOCCOCCOCCOCCOCCOCCOCCOCCOCCOCCOCCOCCOCCOCCOCCOCCOCCOCCOCCOCCOCCOCCOCCOCCOCCOCCC(=O)NCC(N)=O)OC(=O)CCCCCCCCCCCCCCC` [A204], at human TLR2 (hTLR2) [1], the “activity at TLR2” value is listed as “significant activity at TLR2”. For the same compound, the “formulation pH” value is listed as 5.0 in [2] (0-days); 5.2 in data set [2] (9-days, 40° C./75% RH); 5.2 in data set [2] (28-days, 40° C./75% RH). In data set [3], the solubility is ≤ 2000 µg/mL. Further, the “weight change during infection” value with SARS-CoV-2 [4] (50 ug/ml in 100 ul intranasal 24 hours prior to infection) is recorded as “lost no weight”. The “lung viral loads versus mock treated animals” value in the data set with SARS-CoV-2 [4] (7 dpi) was “slightly lower”. For the same compound, the “viral RNA level versus mock treated animals (fold lower)” value with SARS-CoV-2 [4] (throat swabs, 2 days post infection, RT-qPCR) turned out to be 32 fold. Besides, the “recovery of weight loss” value in the data set with SARS-CoV-2 [5] was “recovered weight loss more rapidly than PBS treated”.
`CCCCCCCCCCCCCCC(C)C(=O)OCC[C@H](CSC[C@H](N)C(=O)N[C@@H](CO)C(=O)NCCOCCOCCOCCOCCOCCOCCOCCOCCOCCOCCOCCOCCOCCOCCOCCOCCOCCOCCOCCOCCOCCOCCOCCOCCOCCOCCOCCOCCC(=O)NCC(N)=O)OC(=O)C(C)CCCCCCCCCCCCCC` (stereo partly drawn) [B12]: the “optical density (650 nm), screenings 1-3” value is 0.239 and 0.202 and 0.208 at human TLR2 (hTLR2) [6] (0.1 ng/mL); 0.116 and 0.132 and 0.137 at human TLR2 (hTLR2) [6] (0.31 ng/mL); 0.585 and 0.558 and 0.559 at human TLR2 (hTLR2) [6] (0.5 ng/mL); 1.429 and 1.308 and 1.638 on human TLR2 (hTLR2) [6] (2.0 ng/mL); 2.187 and 2.257 and 2.302 on human TLR2 (hTLR2) [6] (7.8 ng/mL); 2.422 and 2.423 and 2.449 on human TLR2 (hTLR2) [6] (31.3 ng/mL). Besides, the “optical density (650 nm), screenings 1-3” value at human TLR2 (hTLR2) [6] (125 ng/mL) is 2.409 and 2.564 and 2.615; on human TLR2 (0.12 pg/mL) it was 1.443 and 1.313 and 1.329; on human TLR2 (0.49 pg/mL), 1.892 and 1.785 and 1.902; on human TLR2 (1.95 pg/mL), 2.149 and 2.008 and 1.979; on human TLR2 (7.81 pg/mL), 2.420 and 2.446 and 2.366; at human TLR2 (31.25 pg/mL), 2.492 and 2.500 and 2.380. Moreover, the “optical density (650 nm), screenings 1-3” value at human TLR2 (125 pg/mL) is 2.608 and 2.541 and 2.555; on human TLR2 (500 pg/mL) it was 2.584 and 2.404 and 2.426. For the same compound, the “optical density (650 nm), Average” value on human TLR2 (0.12 pg/mL) came to 1.362; at human TLR2 (0.49 pg/mL) it was 1.860; on human TLR2 (1.95 pg/mL) it was 2.045; at human TLR2 (7.81 pg/mL) it was 2.411; on human TLR2 (31.25 pg/mL) it was 2.457; at human TLR2 (125 pg/mL), 2.568. In addition, the “optical density (650 nm), Average” value at human TLR2 (500 pg/mL) is 2.471. Besides, the “stimulatory (agonist) activity for hTLR2” value at human TLR2 was “possesses stimulatory activity”. For the same compound, the “stimulatory (agonist) activity for mTLR2” value at mouse TLR2 is reported as “possesses stimulatory activity”. The “stimulatory response in HEK-Blue Null1 (human) cells” value in the data set with HEK-Blue Null1 cells is recorded as “not observed”. Also, in the data set with HEK-Blue Null2 cells, the “stimulatory response in HEK-Blue Null2 (mouse) cells” value was “not observed”. Moreover, the “activity at TLR2” value on human TLR2 (hTLR2) [1] was “significant activity at TLR2”. In addition, the “formulation pH” value in [2] (0-days) was 5.6; in [2] (9-days, 40° C./75% RH), 5.7; in data set [2] (28-days, 40° C./75% RH) it was 5.7.
For the compound `CCCCCCCCCCCCCCC(C)C(=O)OC[C@H](CSC[C@H](N)C(=O)N[C@@H](CO)C(=O)NCCOCCOCCOCCOCCOCCOCCOCCOCCOCCOCCOCCOCCOCCOCCOCCOCCOCCOCCOCCOCCOCCOCCOCCOCCOCCOCCOCCOCCC(=O)NCC(N)=O)OC(=O)C(C)CCCCCCCCCCCCCC` (stereo partly drawn) [B4], the “optical density (650 nm), screenings 1-3” value on human TLR2 (hTLR2) [6] (0.1 ng/mL) was 0.182 and 0.206 and 0.197; on human TLR2 (hTLR2) [6] (0.31 ng/mL) it was 0.126 and 0.115; on human TLR2 (hTLR2) [6] (0.5 ng/mL) it was 0.719 and 0.594 and 0.617; at human TLR2 (hTLR2) [6] (2.0 ng/mL), 1.660 and 1.529 and 1.498; on human TLR2 (hTLR2) [6] (7.8 ng/mL), 2.214 and 2.163; at human TLR2 (hTLR2) [6] (31.3 ng/mL) it was 2.438 and 2.327 and 2.350. Besides, the “optical density (650 nm), screenings 1-3” value was 2.451 and 2.411 and 2.467 on human TLR2 (hTLR2) [6] (125 ng/mL); 0.653 and 0.759 and 0.809 on human TLR2 (0.12 pg/mL); 1.409 and 1.507 and 1.521 on human TLR2 (0.49 pg/mL); 1.795 and 1.757 and 1.916 on human TLR2 (1.95 pg/mL); 2.288 and 2.168 and 2.323 on human TLR2 (7.81 pg/mL); 2.440 and 2.485 and 2.518 at human TLR2 (31.25 pg/mL). The “optical density (650 nm), screenings 1-3” value is 2.569 and 2.508 and 2.487 on human TLR2 (125 pg/mL); 2.717 and 2.590 and 2.526 at human TLR2 (500 pg/mL). The “optical density (650 nm), Average” value was found to be 0.740 at human TLR2 (0.12 pg/mL); 1.479 at human TLR2 (0.49 pg/mL); 1.823 at human TLR2 (1.95 pg/mL); 2.260 at human TLR2 (7.81 pg/mL); 2.481 at human TLR2 (31.25 pg/mL); 2.521 at human TLR2 (125 pg/mL). Further, the “optical density (650 nm), Average” value at human TLR2 (500 pg/mL) came to 2.611. Moreover, the “stimulatory (agonist) activity for hTLR2” value on human TLR2 is recorded as “possesses stimulatory activity”. Also, the “stimulatory (agonist) activity for mTLR2” value at mouse TLR2 is listed as “possesses stimulatory activity”. Moreover, the “stimulatory response in HEK-Blue Null1 (human) cells” value with HEK-Blue Null1 cells is “not observed”. For the same compound, in the data set with HEK-Blue Null2 cells, the “stimulatory response in HEK-Blue Null2 (mouse) cells” value is “not observed”. Further, the “formulation pH” value in data set [2] (0-days) was found to be 5.6; in [2] (9-days, 40° C./75% RH), 5.7; in data set [2] (28-days, 40° C./75% RH), 5.7.
